Laboratory results as given in publication PMC5030144 (Nature chemical biology, 2016).
“And” between values parts separate entries of the source, which are not always exact repeats. Identical values can stand only once.

Assays:
RMS3 [1] = target: T1, RMS3 (Pisum sativum, UniProt A0A109QYD3); test: Intrinsic tryptophan fluorescence, apparent dissociation coefficient; assay type: binding; details: apparent Kd from intrinsic fluorescence, mean ± SE of two replicates
T1 sequence (A0A109QYD3 1-267): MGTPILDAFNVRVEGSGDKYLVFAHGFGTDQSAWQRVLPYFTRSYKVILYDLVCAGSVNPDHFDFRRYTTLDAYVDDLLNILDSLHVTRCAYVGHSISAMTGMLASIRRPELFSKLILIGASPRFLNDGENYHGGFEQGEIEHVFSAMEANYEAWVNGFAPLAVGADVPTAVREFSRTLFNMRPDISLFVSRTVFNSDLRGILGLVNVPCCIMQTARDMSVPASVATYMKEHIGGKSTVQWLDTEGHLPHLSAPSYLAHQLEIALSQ

RMS3 [2] = target: T1, RMS3; test: Differential scanning fluorimetry; assay type: binding; details: DSF
RMS3 [3] = target: T1, RMS3; test: Competition test with; assay type: biochemical

| SMILES | Kd (RMS3 [1]) [µM] | shift in RMS3 melting temperature (destabilization) (RMS3 [2]) | mode of inhibition of (±)-GC242 hydrolysis (RMS3 [3]; RMS3) | Ki (RMS3 [3]; RMS3, competition test with (±)-GC242, mean ± SE of three replicates) [µM] | Kd (RMS3 [1]; Kd) |
| --- | --- | --- | --- | --- | --- |
| CC1=C(C)C(OC=C2C(=O)OC3c4ccccc4CC23)OC1=O (racemic) [(±)-3’-Me-GR24] | 30.9 ± 5.2 | – | – | – | – |
| O=C1C=CC(OC=C2C(=O)OC3c4ccccc4CC23)O1 (racemic) [(±)-4’-desmethyl-2’-epi-GR24] | 296 ± 27.9 | no shift | – | – | – |
| O=C1OC2c3ccccc3CC2/C1=C\O (racemic) [(±)-ABC] | 271 ± 29.8 | no shift | competitive inhibitor | 28.8 ± 17.6 | – |
| Cc1cc(=O)oc2c(F)c(O)c(F)cc12 [DiFMU, 6,8-difluoro-7-hydroxy-4-methylcoumarin] | – | small stabilization | – | – | 20 µM and 19.9 µM |
